Columns and labels:
[1] = test system: peritoneal macrophages (PEMs); assay: IL-6 and IL-1β production by peritoneal macrophages isolated from AdipoAI-treated mice; format: in vivo, C57BL/6J mice; conditions: i.p., 20 mg/kg body weight as printed
[2] = test system: LPS-stimulated Raw264.7 cells; assay: mRNA microarray analysis of LPS-stimulated Raw264.7 cells; format: cell-based
Protocol: FIG. 2 AdipoAI suppresses LPS-stimulated inflammatory responses in macrophages. (a) Raw264.7 cells or (b) BMMs were pretreated with APR (20 μM) or AdipoAI (5 μM) for 24 h followed by incubation with LPS (100 ng/mL) for additional 6 h for the measurement of IL-6 and IL-1β in supernatants by ELISA. Data were expressed as the mean±SEM at five biological independent experiments. One-way ANOVA test for multiple-group comparisons, * vs. LPS group, *P<0.05, significant differences between each indicated group. (c) PEMs were isolated from C57BL/6J mice (n=5 mice/group) were injected i.p. with ImL 4% thioglycolate solution or AdipoAI (25 mg/kg) for the measurement of IL-6 and IL-1β. The amounts of IL-6 and IL-1β in supernatant were measured by ELISA. Data were expressed as the mean±SEM (n=5). Two-tailed Student's t-test for two groups, *P<0.05, significant differences between each indicated group. (d-f) Impact of AdipoAI on basal (d) and LPS-induced expression of an array of proinflammatory cytokines, chemokines, and receptors (e,f) in Raw264.7 cells (4 groups and 3 biological replicates/group). Data analyses were performed according to the manufacturer's instructions with their web-based software package (www.qiagen.com/us/shop/genes-and-pathways/data-analysis-center overview-page/). (g) Differentiated expressed genes annotated to a gene-ontology term and example genes by gene-ontology-enrichment analysis of each component. (brown: LPS vs control; black: AdipoAI+LPS vs LPS). (h) Differentially expressed M1 and M2 genes are shown according to the microarray databases. […]
FIG. 7 AdipoAI regulated methylation level of the c-Maf gene promoter to suppress c-Maf activation in LPS-induced macrophages. […] (b) mRNA levels of c-Maf were determined by qPCR in Raw264.7 cells, BMMs and PEMs treated with AdiopoAI or LPS. Data were expressed as the mean±SEM at five […] biological independent experiments. […] (c) c-Maf mRNA expression levels in lung, spleen, liver and WAT of LPS-induced endotoxemia mice were measured by qRT-PCR and normalized with GAPDH mRNA levels. Data are expressed as mean±SEM (n=6). […]

COc1ccc(CN2CCC(NC(=O)COc3ccc(C(=O)c4ccc(Cl)cc4)cc3)CC2)cc1 [Compound 3]
production of IL-6 and IL-1β by PEMs from treated mice [1]: reduced IL-6 and IL-1β
expression of M1 or M2 macrophage-related genes ([2]; LPS-induced Raw264.7 cells): did not alter the expression of M1 or M2 macrophage-related genes
expression of proinflammatory cytokines, chemokines and receptors (microarray) ([2]; LPS-stimulated Raw264.7 cells): decreased the expression of the same genes to near basal levels
c-Maf mRNA levels (microarray) ([2]; LPS-treated Raw264.7 cells): inhibited
